The source made the active and inactive calls.
What was measured:
Paired box protein Pax-8 = Paired box protein Pax-8 (Homo sapiens, UniProt Q06710); assay: inhibitors of PAX8-driven TPO luciferase reporter, dose response, RMG-I cells, cherry-pick (AID 687027); type: functional, cell-based;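 further: luciferase reporter driven by Pax8 target thyroperoxidase promoter measured by SteadyGlo luminescence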
[1] = IOSE-T80 ovarian epithelial cell cytotoxicity, dose response, cytotoxicity control for PAX8 inhibitor project, plate reader, dry powder samples (AID 743045); type: functional, cell-based
[2] = NIH:OVCAR-3 ovarian cancer cell cytotoxicity, dose response, PAX8 inhibitor project, plate reader, dry powder samples (AID 743044); type: functional, cell-based
[3] = IGROV1 ovarian cancer cell cytotoxicity, dose response, PAX8 inhibitor project, plate reader, dry powder samples (AID 743043); type: functional, cell-based; conditions: IGROV-1
[4] = cytotoxicity in OVCAR8 ovarian cancer cells, dose response, PAX8 project, cell-based, plate reader, dry powder samples (AID 743197); type: functional; conditions: OVCAR-8
[5] = HEK293 Cytotoxicity Assay Measured in Cell-Based System Using Plate Reader - 7071-01_Inhibitor_Dose_CherryPick_Activity_Set2.; type: functional
HEK293 = assay: HEK293T cell cytotoxicity, dose response, cytotoxicity control, ATP luminescence, cherry-pick samples (AID 687005); type: functional, cell-based; conditions: Homo sapiens;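 further: cells exposed to compound for 48 hours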
A549 = assay: A549 cell toxicity, dose response, cytotoxicity control, plate reader, cherry-pick samples (AID 687028); type: functional, cell-based; conditions: Homo sapiens
[6] = molecular target: Metabotropic glutamate receptor 5 (Rattus norvegicus, UniProt P31424); assay: Identification of a glycine sulfonamide based non-MPEP site positive allosteric potentiator (PAM) of mGlu5 (calcium_assay).; type: functional
Mu-type opioid receptor = Mu-type opioid receptor (Homo sapiens, UniProt P35372); assay: Late-stage results from the probe development effort to identify antagonists of OPRK1: luminescence-based cell-based dose response OPRM1 counterscreen.; type: functional
[7] = molecular target: Delta-type opioid receptor (Homo sapiens, UniProt P41143); assay: Late-stage results from the probe development effort to identify antagonists of OPRK1: fluorescence-based cell-based dose response OPRD1 counterscreen.; type: functional
[8] = molecular target: Sphingosine 1-phosphate receptor 1 (Homo sapiens, UniProt P21453); assay: Late-stage counterscreen for antagonists of kappa opioid receptor 1 (OPRK1): fluorescence-based cell-based dose response assay to identify antagonists of Sphingosine 1-Phosphate Receptor 1 (S1P1).; type: functional
Protein Wnt-3a = Protein Wnt-3a (Mus musculus, UniProt P27467); assay: SAR analysis of small molecule antagonists of Gli-SUFU in a Wnt3a luminescent reporter assay.; type: functional
[9] = molecular target: Endoplasmic reticulum aminopeptidase 1 (Homo sapiens, UniProt Q9NZ08); assay: ERAP1 aminopeptidase inhibitors, dose response, biochemical, cherry-pick, set 2, plate reader (AID 743314)
[10] = TRPM1 promoter luciferase reporter signal decrease, dose response, MITF inhibitor project, cell-based, SK-MEL-5, dry powder, set 8 (AID 624430); type: functional
[11] = MITF: Counter assay: A375 proliferation Measured in Cell-Based System Using Plate Reader - 2084-03_Inhibitor_Dose_DryPowder_Activity_Set8.; type: functional; conditions: A-375
[12] = MITF Orthogonal Assay: SK-MEL-5 CTG Assay Measured in Cell-Based System Using Plate Reader - 2084-02_Inhibitor_Dose_DryPowder_Activity_Set7.; type: functional
Beta-lactamase [13] = molecular target: Beta-lactamase (Salmonella choleraesuis (strain SC-B67), UniProt Q5J463); assay: Epi-absorbance-based counterscreen for selective VIM-2 inhibitors: dose response biochemical high throughput screening assay to identify inhibitors of TEM-1 serine-beta-lactamase.
Beta Lactamase [14] = molecular target: T1, Beta Lactamase (Pseudomonas aeruginosa, UniProt Q932Y6); assay: VIM-2 inhibitor FRET-based artefact check, dose response, artefact control for selective VIM-2 inhibitor project, biochemical, FRET readout, CCF2 substrate (AID 1926)
Beta-lactamase [15] = molecular target: T2, Beta-lactamase (Pseudomonas aeruginosa, UniProt Q79MP6); assay: IMP-1 metallo-beta-lactamase inhibitors, dose response, selectivity assay for VIM-2 inhibitor project, biochemical, epi-absorbance (AID 1920)
Beta-lactamase [16] = molecular target: T2, Beta-lactamase; assay: […] counterscreen for selective VIM-2 inhibitors: dose response biochemical high throughput screening assay to identify inhibitors of IMP-1 metallo-beta-lactamase.
Beta Lactamase [17] = molecular target: T1, Beta Lactamase; assay: VIM-2 metallo-beta-lactamase inhibitor potency, dose response, biochemical, epi-absorbance readout, selective inhibitors (AID 1919)

T1 sequence (Q932Y6 whole entry): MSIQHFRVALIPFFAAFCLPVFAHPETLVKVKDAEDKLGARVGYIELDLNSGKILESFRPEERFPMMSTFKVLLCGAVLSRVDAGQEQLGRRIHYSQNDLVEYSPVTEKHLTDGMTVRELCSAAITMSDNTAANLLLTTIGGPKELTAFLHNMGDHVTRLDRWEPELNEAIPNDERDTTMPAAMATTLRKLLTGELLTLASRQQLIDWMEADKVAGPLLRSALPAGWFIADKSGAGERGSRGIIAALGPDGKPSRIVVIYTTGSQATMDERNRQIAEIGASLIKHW
T2 sequence (Q79MP6 whole entry): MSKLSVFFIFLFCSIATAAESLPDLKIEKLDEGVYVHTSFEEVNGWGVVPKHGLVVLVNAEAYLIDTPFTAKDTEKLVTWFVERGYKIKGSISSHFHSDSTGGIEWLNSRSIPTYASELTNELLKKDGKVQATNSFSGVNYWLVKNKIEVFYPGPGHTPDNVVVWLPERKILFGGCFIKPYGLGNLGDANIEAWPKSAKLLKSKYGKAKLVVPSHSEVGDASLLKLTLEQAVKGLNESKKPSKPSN
Sequence of Sphingosine 1-phosphate receptor 1 (P21453 whole entry): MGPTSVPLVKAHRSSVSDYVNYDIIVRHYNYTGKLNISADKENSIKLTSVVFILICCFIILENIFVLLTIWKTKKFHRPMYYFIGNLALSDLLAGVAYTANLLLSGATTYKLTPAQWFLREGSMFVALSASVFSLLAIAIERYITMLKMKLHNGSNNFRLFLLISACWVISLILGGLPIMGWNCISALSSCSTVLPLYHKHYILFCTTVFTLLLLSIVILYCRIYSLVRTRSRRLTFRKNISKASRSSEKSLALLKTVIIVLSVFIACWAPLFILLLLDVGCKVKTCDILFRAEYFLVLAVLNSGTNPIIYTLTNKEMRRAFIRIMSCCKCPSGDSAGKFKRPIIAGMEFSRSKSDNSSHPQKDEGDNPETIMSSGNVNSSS
Sequence of Endoplasmic reticulum aminopeptidase 1 (Q9NZ08 whole entry): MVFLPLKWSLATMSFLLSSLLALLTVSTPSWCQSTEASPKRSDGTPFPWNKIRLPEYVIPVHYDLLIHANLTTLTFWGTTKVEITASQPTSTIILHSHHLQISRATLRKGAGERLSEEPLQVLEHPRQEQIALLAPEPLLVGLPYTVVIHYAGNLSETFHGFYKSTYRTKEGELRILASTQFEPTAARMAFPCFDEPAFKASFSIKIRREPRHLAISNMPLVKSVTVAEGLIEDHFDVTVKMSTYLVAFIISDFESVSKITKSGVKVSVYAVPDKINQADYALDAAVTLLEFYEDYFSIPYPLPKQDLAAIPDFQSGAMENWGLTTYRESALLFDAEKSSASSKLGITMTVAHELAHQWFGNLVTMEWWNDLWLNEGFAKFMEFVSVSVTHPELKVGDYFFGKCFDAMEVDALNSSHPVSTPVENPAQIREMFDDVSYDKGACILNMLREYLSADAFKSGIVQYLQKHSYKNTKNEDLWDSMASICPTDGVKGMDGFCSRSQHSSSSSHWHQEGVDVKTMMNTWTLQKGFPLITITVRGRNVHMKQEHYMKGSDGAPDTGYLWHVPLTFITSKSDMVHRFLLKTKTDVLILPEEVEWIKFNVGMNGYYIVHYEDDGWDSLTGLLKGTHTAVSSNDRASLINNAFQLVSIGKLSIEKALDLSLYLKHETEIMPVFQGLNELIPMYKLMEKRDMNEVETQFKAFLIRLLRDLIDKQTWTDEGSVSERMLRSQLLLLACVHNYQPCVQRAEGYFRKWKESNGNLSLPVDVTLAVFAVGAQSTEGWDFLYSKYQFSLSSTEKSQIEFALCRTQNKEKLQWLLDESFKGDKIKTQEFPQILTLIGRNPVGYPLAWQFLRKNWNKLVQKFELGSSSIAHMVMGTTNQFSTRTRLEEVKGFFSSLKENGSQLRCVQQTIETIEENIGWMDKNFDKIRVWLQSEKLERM
Sequence of Protein Wnt-3a (P27467 whole entry): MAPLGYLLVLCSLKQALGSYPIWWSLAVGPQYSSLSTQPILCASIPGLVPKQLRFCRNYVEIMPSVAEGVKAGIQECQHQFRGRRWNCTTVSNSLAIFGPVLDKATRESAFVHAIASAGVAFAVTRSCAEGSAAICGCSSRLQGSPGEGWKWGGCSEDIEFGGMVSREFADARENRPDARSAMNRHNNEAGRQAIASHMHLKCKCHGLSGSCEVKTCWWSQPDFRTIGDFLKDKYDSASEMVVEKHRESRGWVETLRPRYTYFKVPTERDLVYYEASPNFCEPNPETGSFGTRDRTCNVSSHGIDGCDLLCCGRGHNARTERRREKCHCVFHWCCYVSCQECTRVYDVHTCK
Sequence of Metabotropic glutamate receptor 5 (P31424 whole entry): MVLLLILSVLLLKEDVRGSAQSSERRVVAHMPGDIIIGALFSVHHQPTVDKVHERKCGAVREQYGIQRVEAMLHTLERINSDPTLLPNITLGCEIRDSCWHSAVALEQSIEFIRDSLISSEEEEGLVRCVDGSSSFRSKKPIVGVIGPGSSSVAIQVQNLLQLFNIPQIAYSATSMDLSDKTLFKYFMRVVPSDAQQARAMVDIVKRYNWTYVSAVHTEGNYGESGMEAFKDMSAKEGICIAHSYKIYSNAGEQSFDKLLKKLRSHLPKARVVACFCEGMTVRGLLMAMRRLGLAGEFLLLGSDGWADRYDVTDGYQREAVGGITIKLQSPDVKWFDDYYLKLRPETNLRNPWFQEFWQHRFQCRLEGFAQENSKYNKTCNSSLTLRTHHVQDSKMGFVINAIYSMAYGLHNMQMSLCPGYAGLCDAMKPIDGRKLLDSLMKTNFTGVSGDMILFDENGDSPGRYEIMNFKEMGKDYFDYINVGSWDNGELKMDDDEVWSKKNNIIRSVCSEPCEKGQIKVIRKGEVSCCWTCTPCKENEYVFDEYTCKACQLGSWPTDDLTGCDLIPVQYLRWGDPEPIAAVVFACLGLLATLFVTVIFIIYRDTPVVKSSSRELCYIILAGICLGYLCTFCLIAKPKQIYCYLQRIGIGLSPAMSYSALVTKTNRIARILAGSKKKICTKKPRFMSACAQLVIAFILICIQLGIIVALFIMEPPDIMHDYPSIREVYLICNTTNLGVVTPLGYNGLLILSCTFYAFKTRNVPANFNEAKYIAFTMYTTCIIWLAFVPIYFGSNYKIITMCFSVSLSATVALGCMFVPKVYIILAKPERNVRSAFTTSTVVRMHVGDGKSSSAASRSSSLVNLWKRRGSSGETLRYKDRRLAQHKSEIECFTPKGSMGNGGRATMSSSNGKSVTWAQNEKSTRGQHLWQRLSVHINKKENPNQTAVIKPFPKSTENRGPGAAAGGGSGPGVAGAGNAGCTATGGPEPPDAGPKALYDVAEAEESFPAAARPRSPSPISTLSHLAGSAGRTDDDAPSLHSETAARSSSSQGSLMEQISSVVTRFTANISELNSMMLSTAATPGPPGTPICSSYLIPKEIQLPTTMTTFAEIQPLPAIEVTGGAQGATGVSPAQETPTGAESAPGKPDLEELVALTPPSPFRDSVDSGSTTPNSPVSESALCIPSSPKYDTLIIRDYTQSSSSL
Sequence of Paired box protein Pax-8 (Q06710 whole entry): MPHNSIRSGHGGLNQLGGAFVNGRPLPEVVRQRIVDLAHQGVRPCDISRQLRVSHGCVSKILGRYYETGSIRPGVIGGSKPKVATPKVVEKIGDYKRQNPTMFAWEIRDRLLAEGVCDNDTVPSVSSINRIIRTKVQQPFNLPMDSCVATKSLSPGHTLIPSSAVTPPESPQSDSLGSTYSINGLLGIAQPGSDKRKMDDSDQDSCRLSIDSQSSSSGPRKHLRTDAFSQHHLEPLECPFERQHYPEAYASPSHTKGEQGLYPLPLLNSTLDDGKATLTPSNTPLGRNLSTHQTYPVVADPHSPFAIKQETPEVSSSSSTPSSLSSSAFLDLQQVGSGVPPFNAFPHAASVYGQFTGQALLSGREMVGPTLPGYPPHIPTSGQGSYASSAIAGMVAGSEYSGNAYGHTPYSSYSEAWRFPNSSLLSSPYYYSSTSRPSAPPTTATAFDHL
Sequence of Delta-type opioid receptor (P41143 whole entry): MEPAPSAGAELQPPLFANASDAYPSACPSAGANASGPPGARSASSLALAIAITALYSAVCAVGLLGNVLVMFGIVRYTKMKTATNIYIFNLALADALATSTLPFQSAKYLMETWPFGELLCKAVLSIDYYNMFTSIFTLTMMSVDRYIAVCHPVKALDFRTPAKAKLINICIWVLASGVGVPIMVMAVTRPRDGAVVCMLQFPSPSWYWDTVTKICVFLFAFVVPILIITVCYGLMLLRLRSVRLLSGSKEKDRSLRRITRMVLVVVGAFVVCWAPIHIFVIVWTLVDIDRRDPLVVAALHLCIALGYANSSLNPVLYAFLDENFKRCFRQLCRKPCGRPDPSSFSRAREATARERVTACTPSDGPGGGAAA
Sequence of Mu-type opioid receptor (P35372 whole entry): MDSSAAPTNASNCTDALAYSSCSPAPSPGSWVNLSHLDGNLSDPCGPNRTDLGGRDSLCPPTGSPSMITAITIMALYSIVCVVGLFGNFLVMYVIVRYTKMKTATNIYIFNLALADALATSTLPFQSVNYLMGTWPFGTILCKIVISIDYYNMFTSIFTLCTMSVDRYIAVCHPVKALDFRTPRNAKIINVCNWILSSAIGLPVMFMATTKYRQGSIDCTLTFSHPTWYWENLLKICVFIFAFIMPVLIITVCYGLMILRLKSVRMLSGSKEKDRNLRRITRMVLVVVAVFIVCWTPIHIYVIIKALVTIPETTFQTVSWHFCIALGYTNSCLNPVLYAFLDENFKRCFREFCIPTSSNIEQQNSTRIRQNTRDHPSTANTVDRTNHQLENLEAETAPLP
Sequence of Beta-lactamase (Salmonella choleraesuis (strain SC-B67), UniProt Q5J463) (Q5J463 whole entry): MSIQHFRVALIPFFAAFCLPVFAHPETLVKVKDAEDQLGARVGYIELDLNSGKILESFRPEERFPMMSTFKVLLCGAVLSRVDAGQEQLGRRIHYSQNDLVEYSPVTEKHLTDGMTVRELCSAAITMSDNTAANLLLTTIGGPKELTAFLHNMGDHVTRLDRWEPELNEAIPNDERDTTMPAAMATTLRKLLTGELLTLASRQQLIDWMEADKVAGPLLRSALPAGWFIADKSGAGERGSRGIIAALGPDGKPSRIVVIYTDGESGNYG

C[C@@H]1CCCCO[C@@H](CN(C)Cc2ccc3c(c2)OCO3)[C@H](C)CN([C@@H](C)CO)C(=O)c2cc(NC(=O)Nc3ccc(C(F)(F)F)cc3)ccc2O1
AC50 (Paired box protein Pax-8): 14.5 µM (active)
AC50 [1]: 63.2 µM (active)
AC50 [2]: 15.4 µM (active)
AC50 [3]: 34 µM (active)
AC50 [4]: 30.2 µM (active)

O=S(=O)(NC[C@@H]1[C@@H](c2ccccc2)[C@H](CO)N1CC1CC1)c1ccccc1
AC50 [5]: > 52 µM (inactive)
AC50 (HEK293): > 52 µM (inactive)

Cc1ccccc1S(=O)(=O)N1CC[C@@H]2[C@H](CO)Nc3ccc(-c4cccc(C#N)c4)cc3[C@@H]21
AC50 (A549): 28.8 µM (active)

CS(=O)(=O)N(Cc1nc2ccccc2[nH]1)c1ccccc1Cl
EC50 [6]: 2.46 µM

COC(=O)c1cc(Br)cnc1N1CCC(NC2CCCCCC2)CC1
IC50 (Mu-type opioid receptor): 4.2 µM (active)
IC50 [7]: 12 µM (inactive)

CCOC(=O)c1cc(C(=O)OC)c(C)nc1N1CCC(NC2CCCCC2O)CC1 (configuration not stated)
IC50 [8]: > 50 µM (inactive)

O=C(Nc1cc(N2CCCCC2)ncn1)c1ccccc1Cl
IC50 (Protein Wnt-3a): > 21.8 µM (inactive)

COC(=O)[C@@H]1[C@@H](CO)[C@@H]2Cn3c(ccc(/C=C/c4ccccc4)c3=O)[C@H]1N2C(=O)C1CCC1
AC50 [9]: 3.47 µM (active)

CN1CCN(C2=C(Nc3ccc(Cl)cc3)C(=O)c3ccccc3C2=O)CC1
AC50 [10]: 17.4 µM (active)
AC50 [11]: 39.3 µM (active)
AC50 [12]: 11.6 µM (active)

CC(=C/c1ccccc1)/C=N/n1c(C)nnc1S
IC50 (Beta-lactamase [13]): > 59.6 µM (inactive)
IC50 (Beta Lactamase [14]): 2.5 µM (active)
IC50 (Beta-lactamase [15]): > 59.6 µM (inactive)
IC50 (Beta-lactamase [16]): > 59.6 µM (inactive)
IC50 (Beta Lactamase [17]): 9.98 µM (active)

From ChEMBL document CHEMBL1201862, “PubChem BioAssay data set” (2004)
